Source: patent publication US10428082B2, “Triazole derivatives of melampomagnolide B and methods of use thereof” (BioVentures, LLC, priority 2016, dated 2019)
Read-outs that look alike come from different tables or passages of the source.

Key:
[1] = system: M9 ENL1 cell line; experiment: Anti-leukemic activity, Annexin V/7-AAD flow cytometry; type: cell-based; conditions: 24 h of drug exposure, read-out: M9ENL1 (EC50)
Description: (§1) The newly synthesized triazole derivatives of melampomagnolide B were screened for anti-leukemic activity against M9 ENL1 and primary AML cell lines; the latter were obtained with informed consent from human patients. Evaluations were performed after 24 h of drug exposure using flow cytometric analysis by labeling with Annexin V and 7-aminoactinomycin D (7-AAD) to delineate apoptotic cell populations. In all experiments PTL was included as a reference control.

[2] = system: HL-60(TB); experiment: NCI 60 growth inhibition; type: cell-based, human; conditions: Leukemia
[3] = system: NCI/ADR-RES; experiment: NCI 60 growth inhibition; type: cell-based, human; conditions: Ovarian Cancer
[4] = system: T-47D; experiment: NCI 60 growth inhibition; type: cell-based, human; conditions: Breast Cancer
[5] = system: HOP-62; experiment: NCI 60 growth inhibition; type: cell-based, human; conditions: HOP-62, Non-Small Cell Lung Cancer
[6] = system: SK-MEL-28; experiment: NCI 60 growth inhibition; type: cell-based, human; conditions: SK-MEL-28, Melanoma
[7] = system: BT-549; experiment: NCI 60 growth inhibition; type: cell-based, human; conditions: BT-549, Breast Cancer
[8] = system: SK-MEL-5; experiment: NCI 60 growth inhibition; type: cell-based, human; conditions: SK-MEL-5, Melanoma
[9] = system: SR; experiment: NCI 60 growth inhibition; type: cell-based, human; conditions: Leukemia
[10] = system: HCT-15; experiment: NCI 60 growth inhibition; type: cell-based, human; conditions: HCT-15, Colon Cancer
[11] = system: NCI-H522; experiment: NCI 60 growth inhibition; type: cell-based, human; conditions: NCI-H522, Non-Small Cell Lung Cancer
[12] = system: SK-OV-3; experiment: NCI 60 growth inhibition; type: cell-based, human; conditions: SK-OV-3, Ovarian Cancer
[13] = system: M14; experiment: NCI 60 growth inhibition; type: cell-based, human; conditions: M14, Melanoma
[14] = system: NCI-H322M; experiment: NCI 60 growth inhibition; type: cell-based, human; conditions: Non-Small Cell Lung Cancer
[15] = system: SF-268; experiment: NCI 60 growth inhibition; type: cell-based, human; conditions: SF-268, CNS Cancer
[16] = system: CAKI-1; experiment: NCI 60 growth inhibition; type: cell-based, human; conditions: CAKI-1, Renal Cancer
[17] = system: U251; experiment: NCI 60 growth inhibition; type: cell-based, human; conditions: U251, CNS Cancer
[18] = system: LOX IMVI; experiment: NCI 60 growth inhibition; type: cell-based, human; conditions: Melanoma
[19] = system: HOP-92; experiment: NCI 60 growth inhibition; type: cell-based, human; conditions: HOP-92, Non-Small Cell Lung Cancer
[20] = system: HT29; experiment: NCI 60 growth inhibition; type: cell-based, human
[21] = system: NCI panel of 60 human cancer cell lines; experiment: NCI 60 growth inhibition, ranges over groups of cell lines; type: cell-based; conditions: read-out: GI50
Description: The above triazole derivatives of melampomagnolide B were evaluated for growth inhibitory properties against an NCI panel of 60 human cancer cell lines derived from nine human cancer cell types, grouped into disease sub-panels that represent leukemia, lung, colon, central nervous system (CNS), melanoma, renal, ovary, breast, and prostate cancer cells. Growth inhibitory (GI50) effects were measured as a function of the variation of optical density as a percentage of control.

[22] = system: primary AML cell line AML1; experiment: Anti-leukemic activity, Annexin V/7-AAD flow cytometry; type: cell-based, human; conditions: Homo sapiens, AML1, 24 h, 24 h of drug exposure; read-out: AML#1 (EC50)
Description: as §1

[23] = system: primary AML cell line AML2; experiment: as above; type: cell-based, human; conditions: Homo sapiens, 24 h, 24 h of drug exposure; read-out: AML#2 (EC50)
Description: as §1

[24] = system: UACC-62; experiment: NCI 60 growth inhibition; type: cell-based, human; conditions: UACC-62, Melanoma, Table 2
[25] = Homo sapiens, HL-60(TB), Table 2
[26] = Homo sapiens, HT-29, Colon Cancer, Table 2

Structure (SMILES): C=C1C(=O)O[C@H]2[C@H]1CC/C(Cn1cc(-c3ccc(N)cc3)nn1)=C\CC[C@@]1(C)O[C@@H]21 [JVM 4-58]
- EC50 [1]: 2 µM
- GI50 ([2]; HL-60 (TB), Table 3): 2.23 µM
- GI50 ([3]; Table 3): 14.5 µM
- GI50 ([4]; Table 3): 2.23 µM
- GI50 ([5]; Table 3): 10.2 µM
- GI50 ([6]; Table 3): 2.71 µM
- GI50 ([7]; Table 3): 3.05 µM
- GI50 ([8]; Table 3): 3.47 µM
- GI50 ([9]; Table 3): 0.7 µM
- GI50 ([10]; Table 3): 1.42 µM
- GI50 ([11]; Table 3): 1.37 µM
- GI50 ([12]; Table 3): 18.3 µM
- GI50 ([13]; Table 3): 2.97 µM
- GI50 ([14]; Table 3): 12.6 µM
- GI50 ([15]; Table 3): 3.7 µM
- GI50 ([16]; Table 3): 1.77 µM
- GI50 ([17]; Table 3): 4.16 µM
- GI50 ([18]; Table 3): 1.51 µM
- GI50 ([19]; Table 3): 2.13 µM
- GI50 ([20]; HT29, Colon Cancer, Table 3): 2.14 µM

Structure (SMILES): C=C1C(=O)O[C@H]2[C@H]1CC/C(Cn1cc(CCC)nn1)=C\CC[C@@]1(C)O[C@@H]21 [JVM 4-16, (1aR,7aS,10aS,10bS,E)-1a-Methyl-8-methylene-5((4-propyl-1H-1,2,3-triazol-1-yl)methyl)-2,3,6,7,7a,8,10a,10b-octahydrooxireno[2′,3′:9,10]cyclodeca[1,2-b]furan-9(1aH)-one]
- EC50 ([1]; M9-ENL1, 24 h): 5.5 µM
- GI50 ([21]; several cell lines in the panel): < 5 µM
- GI50 [2, 25]: 3.53 µM
- GI50 ([3]; Homo sapiens, Table 2): 15.2 µM
- GI50 ([4]; Homo sapiens, T47D, Table 2): 4.11 µM
- GI50 ([5]; Homo sapiens, Table 2): 14.1 µM
- GI50 ([7]; Homo sapiens, Table 2): 14.2 µM
- GI50 ([8]; Homo sapiens, Table 2): 15.3 µM
- GI50 ([9]; Homo sapiens, Table 2): 2.88 µM
- GI50 ([10]; Homo sapiens, Table 2): 2.9 µM
- GI50 ([11]; Homo sapiens, Table 2): 3.06 µM
- GI50 ([12]; Homo sapiens, Table 2): 26 µM
- GI50 ([13]; Homo sapiens, Table 2): 3.99 µM
- GI50 ([14]; Homo sapiens, Table 2): 21.5 µM
- GI50 ([15]; Homo sapiens, Table 2): 13.7 µM
- GI50 ([16]; Homo sapiens, Table 2): 3.91 µM
- GI50 ([17]; Homo sapiens, U-251, Table 2): 14.1 µM
- GI50 ([18]; Homo sapiens, Table 2): 3.91 µM
- GI50 ([19]; Homo sapiens, Table 2): 2.94 µM
- GI50 [20, 26]: 5.5 µM

Structure (SMILES): C=C1C(=O)O[C@H]2[C@H]1CC/C(Cn1cc(-c3cccc(Cl)c3)nn1)=C\CC[C@@]1(C)O[C@@H]21 [JVM 4-25, (1aR,7aS,10aS,10bS,E)-5((4-(3-Chlorophenyl)-1H-1,2,3-triazol-1-yl)methyl)-1a-methyl-8-methylene-2,3,6,7,7a,8,10a,10b-octahydrooxireno[2′,3′:9,10]cyclodeca[1,2-b]furan-9(1aH)-one]
- EC50 [22]: 1 µM
- EC50 [23]: 1.7 µM
- GI50 ([21]; all the cell lines in the leukemia sub-panel): 0.1 to 0.5 µM
- GI50 ([21]; most of the solid tumor cell lines in the panel): 0.16 to 0.99 µM
- GI50 [2, 25]: 0.33 µM
- GI50 ([3]; Homo sapiens, Table 2): 2.39 µM
- GI50 ([4]; Homo sapiens, T47D, Table 2): 0.83 µM
- GI50 ([5]; Homo sapiens, Table 2): 1.94 µM
- GI50 ([6]; Homo sapiens, Table 2): 0.35 µM
- GI50 ([7]; Homo sapiens, Table 2): 0.77 µM
- GI50 ([8]; Homo sapiens, Table 2): 1.7 µM
- GI50 ([9]; Homo sapiens, Table 2): 0.23 µM
- GI50 ([10]; Homo sapiens, Table 2): 0.19 µM
- GI50 ([11]; Homo sapiens, Table 2): 0.29 µM
- GI50 ([12]; Homo sapiens, Table 2): 3.67 µM
- GI50 ([13]; Homo sapiens, Table 2): 0.79 µM
- GI50 ([14]; Homo sapiens, Table 2): 2.17 µM
- GI50 ([15]; Homo sapiens, Table 2): 1.59 µM
- GI50 ([16]; Homo sapiens, Table 2): 0.86 µM
- GI50 ([17]; Homo sapiens, U-251, Table 2): 1.61 µM
- GI50 ([18]; Homo sapiens, Table 2): 0.28 µM
- GI50 ([19]; Homo sapiens, Table 2): 0.25 µM
- GI50 ([24]; Homo sapiens): 0.62 µM
- GI50 [20, 26]: 0.51 µM

Structure (SMILES): C=C1C(=O)O[C@H]2[C@H]1CC/C(Cn1cc(-c3cc(C)c(C)cc3C)nn1)=C\CC[C@@]1(C)O[C@@H]21 [JVM 4-50]
- EC50 [1]: 9.8 µM
- GI50 ([2]; HL-60(TB), Table 2): 0.64 µM
- GI50 ([3]; Table 2): 2.51 µM
- GI50 ([4]; Table 2): 0.53 µM
- GI50 ([5]; Table 2): 1.77 µM
- GI50 ([6]; Table 2): 1.4 µM
- GI50 ([7]; Table 2): 0.75 µM
- GI50 ([8]; Table 2): 1.66 µM
- GI50 ([9]; Table 2): 1.26 µM
- GI50 ([10]; Table 2): 0.2 µM
- GI50 ([11]; Table 2): 0.28 µM
- GI50 ([12]; Table 2): 11.7 µM
- GI50 ([13]; Table 2): 1.5 µM
- GI50 ([14]; Table 2): 11.1 µM
- GI50 ([15]; Table 2): 1.52 µM
- GI50 ([16]; Table 2): 1.08 µM
- GI50 ([17]; Table 2): 1.53 µM
- GI50 ([18]; Table 2): 0.72 µM
- GI50 ([19]; Table 2): 0.43 µM
- GI50 [24]: 1.13 µM
- GI50 ([20]; HT-29, Colon Cancer, Table 2): 0.5 µM
